Laboratory results from publication PMC3509768 (Journal of medicinal chemistry, 2012).

How the values were obtained:
Assay type in all cases: biochemical
PfMIF [1] = molecular target: T1, PfMIF (Plasmodium falciparum, UniProt Q8I5C5); test: biochemical; details: for PfMIF tautomerase inhibitory activity (active / inactive): result in words
PfMIF [2] = molecular target: T1, PfMIF; test: Michaelis-Menten kinetics of 4-HPP tautomerization by PfMIF
huMIF = molecular target: T2, huMIF (Homo sapiens, UniProt P14174); test: Michaelis-Menten kinetics of 4-HPP tautomerization by huMIF
T2 sequence (P14174 2-115 limits assumed): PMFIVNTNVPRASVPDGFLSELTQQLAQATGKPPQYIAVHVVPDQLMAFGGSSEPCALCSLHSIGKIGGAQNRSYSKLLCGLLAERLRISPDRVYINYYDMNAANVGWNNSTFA

Q: With `COc1ccc(-c2cc(Oc3cc(C)cc(OC)c3)cc(C)n2)cc1` [Compound 26k] as the molecule, how does the Ki (PfMIF [1]) read?
A: ~40 nM

Q: With `Cc1cc(Oc2cccc(O)c2)nc(-c2ccccc2)n1` [Compound 20] as the molecule, how does the “times less potent than 25h” value (PfMIF [1]; ratio of PfMIF Ki values) read?
A: more than 400

Q: And the “PfMIF tautomerase inhibitory activity (active / inactive)” value (PfMIF [1])?
A: active

Q: For `Oc1cccc(Oc2ccc(-c3cccc(O)c3)nc2)c1` [Compound 24d], which “PfMIF tautomerase inhibitory activity (active / inactive)” value (PfMIF [1]) is on record?
A: active

Q: With `COc1cccc(Oc2cc(C)nc(N3CCOCC3)c2)c1` [Compound 25h] as the molecule, how does the Ki (PfMIF [1]) read?
A: ~40 nM

Q: Which “PfMIF tautomerase inhibitory activity (active / inactive)” value (PfMIF [1]) does the source give for `Oc1ccc(-c2ccc(Oc3cccc(O)c3)cn2)cc1` [Compound 24e] here?
A: active

Q: With `O=C(O)C(=O)Cc1ccc(O)cc1` [Compound 4-HPP, 4-hydroxyphenylpyruvate] as the molecule, how does the Km (PfMIF [2]; enolization) read?
A: 675 ± 46.9 µM

Q: And the kcat (PfMIF [2]; enolization)?
A: 17.98 ± 0.7 s⁻¹

Q: And the Km (PfMIF [2]; ketonization)?
A: 187 ± 50.6 µM

Q: And the kcat (PfMIF [2]; ketonization)?
A: 32.90 ± 5.3 s⁻¹

Q: And the Km (huMIF; enolization)?
A: 1140 ± 216 µM

Q: What about the kcat (huMIF; enolization) of the same molecule?
A: 208.3 ± 19.3 s⁻¹

Q: And the Km (huMIF; ketonization)?
A: 192 ± 47 µM

Q: And the kcat (huMIF; ketonization)?
A: 86.62 ± 11.7 s⁻¹

Q: How did the “PfMIF tautomerase inhibitory activity (active / inactive)” value (PfMIF [1]) turn out when `COc1cccc(Oc2ccnc(N3CCOCC3)c2)c1` [Compound 23] was run?
A: active

Q: With `COc1cc(C)cc(Oc2cc(C)nc(N3CCOCC3)c2)c1` [Compound 25f] as the molecule, how does the Ki (PfMIF [1]) read?
A: 1000 nM

Q: Which “times more potent than the 3-hydroxyl analogue 24d” value (PfMIF [1]; ratio of PfMIF Ki values) does the source give for `N#Cc1cccc(Oc2ccc(-c3cccc(O)c3)nc2)c1` [Compound 24j] here?
A: roughly 20
